Here are results for one molecule from patent US20200262869A1, “PEPTIDE ANTIBIOTIC COMPLEXES AND METHODS OF USE THEREOF” (GENENTECH, INC., priority 2017, published 2020).

In experiment [1] the test system is K. pneumoniae strain ATCC 43816. Nature of the experiment: Mucin peritonitis survival study in mice. The settings on record: 5 mg/kg BID subcutaneously on day of infection; out to 84 hours. The format is in vivo. Here is the method: CD1 mice (Charles River Laboratories) were infected through intraperitoneal injection of 0.4 mL K. pneumoniae (ATCC 43816) at 3×10^5 CFU/mouse in 5% mucin (Sigma M1778). At 2 and 11 hours post infection, G0775 was given at the indicated dose subcutaneously. Ciprofloxacin (Claris Lifesciences Inc.) was dosed at 80 mg/kg subcutaneously once at 2 hour post infection. Mice were monitored for body conditioning and survival until 84 hours post infection.

The next experiment has as its system E. cloacae ATCC 13407. Nature of the experiment: MIC, broth microdilution. The format is cell-based. As to conditions: Enterobacter cloacae, ATCC13407, read-out: MIC. Here is the method:
(§1) Minimum Inhibitory Concentration (MIC). MICs were determined by performing two-fold serial dilutions of compound in Mueller Hinton II cation-adjusted broth to a final volume of 0.1 m1 in round-bottom 96-well assay plates (Corning Life Sciences No 3788). Each well was inoculated with 5×10^5 CFU/ml and incubated at 37° C. without agitation for 18 hours. Plates were scored by eye, and the lowest compound concentration preventing visible growth was determined to be the MIC.
(In general: In broth dilution the organism is exposed to a series of concentrations in liquid medium.)

The subject of a further experiment is K. pneumoniae ATCC 43816. Briefly: MIC, broth microdilution. The format is cell-based. Here is the method: as §1
The next experiment relates to P. aeruginosa ATCC 27853. Briefly: MIC, broth microdilution. The format is cell-based. The settings on record: Pseudomonas aeruginosa, ATCC27853, read-out: MIC. On the procedure: as §1
The next experiment has as its system A. baumannii ATCC 17978. Briefly: MIC, broth microdilution. It counts as cell-based. The settings on record: Acinetobacter baumannii, ATCC17978, read-out: MIC. Here is the method:
as §1

In another experiment the test system is S. marcescens CDC4385-74. Briefly: MIC, broth microdilution. The format is cell-based. As to conditions: Serratia marcescens, CDC438574, read-out: MIC. Here is the method:
as §1

Another experiment deals with C. werkmanii ATCC 51114. Nature of the experiment: MIC, broth microdilution. It counts as cell-based. As to conditions: Citrobacter werkmanii, ATCC51114, read-out: MIC. Here is the method:
as §1

The next experiment concerns E. aerogenes ATCC 13408. Briefly: MIC, broth microdilution. The format is cell-based. The settings on record: Klebsiella aerogenes, ATCC13408, read-out: MIC. Here is the method: as §1
A further experiment has as its system E. coli ATCC 25922. Nature of the experiment: MIC, broth microdilution. The format is cell-based. Here is the method: as §1
For experiment [2], the system named is MDR K. pneumoniae CDC 0106. Briefly: MIC against MDR clinical isolate. It counts as cell-based. As to conditions: Klebsiella pneumoniae; MDR K. pneumoniae CDC 0106; read-out: MIC. On the procedure:
as §1

The subject of experiment [3] is E. coli strain ATCC 25922. Briefly: Neutropenic thigh infection model in mice. The format is in vivo. The settings on record: 1 mg/kg subcutaneously BID at 2 and 11 h, 20 h post infection. On the procedure: CD1 mice (Charles River Laboratories) were rendered neutropenic by 2 intraperitoneal injections of Cytoxan (Baxter Health Care Corporation) at 150 mg/kg on Day -5 and 100 mg/kg on Day -2. On day 0, 50 ul log-phase grown bacteria, K. pneumoniae (ATCC 43816) 1×10^5 CFU/mouse, E. coli (ATCC 25922) 1×10^5 CFU/mouse, P. aeruginosa (ATCC 27853) 1×10^6 CFU/mouse, or A. baumannii (ATCC 17978) 1×10^5 CFU/mouse, were injected into the mouse thigh muscle. At 2 and 11 hours post infection, […] was given at indicated dose subcutaneously. At 20 hours post infection, CFU was determined in the thigh muscle through serial dilutions.

SMILES strings stand for the structures. In brackets after ≈: the same amount, converted by molar mass.

For the molecule `Cc1nc(-c2ccc(C(C)(C)C)cc2)ncc1C(=O)NC(CCN)C(=O)N(C)C1C(=O)NC(C)C(=O)NC(C(=O)NCC#N)Cc2ccc(OCCN)c(c2)-c2cc1ccc2OCCN` (stereo not shown) [G0775], in experiment [1], the “survival (animal viability)” value is reported as “full animal viability”. The MIC (commonly the least concentration at which growth counts as inhibited) in the experiment with E. cloacae ATCC 13407 is 0.25 µg/mL (≈ 0.281 µM); with K. pneumoniae ATCC 43816 (Klebsiella pneumoniae, ATCC43816, K. pneumoniae ATCC 43816, read-out: MIC) it was 0.125 µg/mL (≈ 0.14 µM); in the experiment on P. aeruginosa ATCC 27853, 4 µg/mL (≈ 4.49 µM); with A. baumannii ATCC 17978, 1 µg/mL (≈ 1.12 µM); in the experiment on S. marcescens CDC4385-74 it was 0.125 µg/mL (≈ 0.14 µM); in the experiment on C. werkmanii ATCC 51114, 0.125 µg/mL (≈ 0.14 µM). Besides, the MIC in the experiment on E. aerogenes ATCC 13408 was found to be 0.125 µg/mL (≈ 0.14 µM); with E. coli ATCC 25922 (Escherichia coli, ATCC25922, E. coli ATCC 25922, read-out: MIC), 0.125 µg/mL (≈ 0.14 µM); in [2], 0.5 µg/mL (≈ 0.562 µM). For the same molecule, the “potency relative to arylomycin A-C16” value is reported as above 500 fold in the experiment with K. pneumoniae ATCC 43816 (K. pneumoniae, more potent than arylomycin A-C16) and above 500 fold in the experiment on E. coli ATCC 25922 (E. coli, more potent than arylomycin A-C16). Also, the “decrease in CFU (bactericidal activity)” value in experiment [3] is above 2 log.
